The results in this text go back to patent US6559101B2, “N- (5, 7-dimethoxy [1, 2, 4] triazolo [1, 5-a] pyrimidin-2-yl) arylsulfonamide compounds and their use as herbicides” (Dow AgroSciences LLC, priority 2000, dated 2003).

What all share (format): in vivo
Assay [1] deals with Rox orange sorghum (Sorghum bicolor). As to the kind of experiment: Postemergence herbicidal activity. The following applies: scored after 2 weeks, 0 no injury, 100 complete kill. In short, it runs like this: (§1)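 Visual injury rating (0 = no injury, 100% = complete kill) taken 2 weeks post-application relative to untreated controls. Compounds applied as foliar spray in an acetone/DMSO-based aqueous carrier with crop oil and surfactant to plants at first or second true leaf stage; 1 ppm corresponds to about 1 g/ha.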

Assay [2] relates to blackgrass (Alopecurus myosuroides). As to the kind of experiment: Postemergence herbicidal activity. The following applies: scored after 2 weeks, 0 no injury, 100 complete kill. In short, it runs like this:
as §1

In assay [3] the test system is chickweed (Stellaria media). Nature of the assay: Postemergence herbicidal activity. The following applies: scored after 2 weeks, 0 no injury, 100 complete kill. In short, it runs like this:
as §1

The subject of assay [4] is cocklebur (Xanthium strumarium). As to the kind of experiment: Postemergence herbicidal activity. The following applies: scored after 2 weeks, 0 no injury, 100 complete kill. In short, it runs like this:
as §1

Assay [5] has as its system giant foxtail (Setaria faberi). As to the kind of experiment: Postemergence herbicidal activity. The following applies: scored after 2 weeks, 0 no injury, 100 complete kill. In a few lines: as §1
Assay [6] relates to lambsquarters (Chenopodium album). Nature of the assay: Postemergence herbicidal activity. The following applies: scored after 2 weeks, 0 no injury, 100 complete kill. In short, it runs like this:
as §1

Assay [7] deals with morningglory (Ipomoea hederacea). Nature of the assay: Postemergence herbicidal activity. As to conditions: scored after 2 weeks, 0 no injury, 100 complete kill. In a few lines:
as §1

Assay [8] deals with pigweed (Amaranthus retroflexus). As to the kind of experiment: Postemergence herbicidal activity. As to conditions: scored after 2 weeks, 0 no injury, 100 complete kill. In short, it runs like this:
as §1

Assay [9] relates to velvetleaf (Abutilion theophrasti). Nature of the assay: Postemergence herbicidal activity. As to conditions: scored after 2 weeks, 0 no injury, 100 complete kill. In a few lines:
as §1

In assay [10] the test system is viola (Viola tricolor). Nature of the assay: Postemergence herbicidal activity. The following applies: scored after 2 weeks, 0 no injury, 100 complete kill. In a few lines: as §1
Assay [11] has as its system wild buckwheat (Polygonum convolvulus). Nature of the assay: Postemergence herbicidal activity. The following applies: scored after 2 weeks, 0 no injury, 100 complete kill. In short, it runs like this:
as §1

Assay [12] deals with wild oats (Avena fatua). As to the kind of experiment: Postemergence herbicidal activity. As to conditions: scored after 2 weeks, 0 no injury, 100 complete kill. In short, it runs like this:
as §1

Assay [13] concerns Rox orange sorghum (Sorghum bicolor). Nature of the assay: Preemergence herbicidal activity. As to conditions: scored after 3 weeks, 0 no injury, 100 complete kill or no germination. In a few lines: (§2)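 Visual rating 3 weeks after treatment, 0-100% injury versus untreated pots, where 100 means complete kill or no germination. Soil of seeded pots was sprayed preemergence with aqueous Tween 155 dilutions of acetone/DMSO stocks, up to 4.48 kg/ha. Plants were grown in a greenhouse at about 23-29 °C day/22-28 °C night with ~15 h light.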

In assay [14] the test system is barnyardgrass (Echinochloa crus-galli). Nature of the assay: Preemergence herbicidal activity. The following applies: scored after 3 weeks, 0 no injury, 100 complete kill or no germination. In short, it runs like this:
as §2

The subject of assay [15] is blackgrass (Alopecurus myosuroides). Nature of the assay: Preemergence herbicidal activity. As to conditions: scored after 3 weeks, 0 no injury, 100 complete kill or no germination. In short, it runs like this: as §2
Assay [16] concerns cocklebur (Xanthium strumarium). Nature of the assay: Preemergence herbicidal activity. As to conditions: scored after 3 weeks, 0 no injury, 100 complete kill or no germination. In a few lines: as §2
Assay [17] concerns crabgrass (Digitaria sanguinalis). Nature of the assay: Preemergence herbicidal activity. As to conditions: scored after 3 weeks, 0 no injury, 100 complete kill or no germination. In short, it runs like this: as §2
Assay [18] has as its system giant foxtail (Setaria faberi). As to the kind of experiment: Preemergence herbicidal activity. As to conditions: scored after 3 weeks, 0 no injury, 100 complete kill or no germination. In a few lines:
as §2

In assay [19] the test system is lambsquarters (Chenopodium album). As to the kind of experiment: Preemergence herbicidal activity. The following applies: scored after 3 weeks, 0 no injury, 100 complete kill or no germination. In short, it runs like this: as §2
The subject of assay [20] is morningglory (Ipomoea hederacea). As to the kind of experiment: Preemergence herbicidal activity. As to conditions: scored after 3 weeks, 0 no injury, 100 complete kill or no germination. In a few lines: as §2
Assay [21] relates to pigweed (Amaranthus retroflexus). Nature of the assay: Preemergence herbicidal activity. As to conditions: scored after 3 weeks, 0 no injury, 100 complete kill or no germination. In a few lines: as §2
Assay [22] deals with velvetleaf (Abutilion theophrasti). Nature of the assay: Preemergence herbicidal activity. As to conditions: scored after 3 weeks, 0 no injury, 100 complete kill or no germination. In a few lines: as §2
For assay [23], the system named is wild oats (Avena fatua). As to the kind of experiment: Preemergence herbicidal activity. As to conditions: scored after 3 weeks, 0 no injury, 100 complete kill or no germination. In a few lines:
as §2

Assay [24] relates to wild poinsettia (Euphorbia heterophylla). Nature of the assay: Preemergence herbicidal activity. As to conditions: scored after 3 weeks, 0 no injury, 100 complete kill or no germination. In a few lines:
as §2

Take `COc1cc(OC)n2nc(NS(=O)(=O)c3c(C(F)(F)C(F)(F)F)ccnc3OC)nc2n1` [Compound 18]: the “Postemergence herbicidal activity SORBI” value in assay [1] (31.3 ppm) is listed as 90%. Besides, the “Postemergence herbicidal activity ALOMY” value in assay [2] (31.3 ppm) is given as 65%. For the same compound, the “Postemergence herbicidal activity STEME” value in [3] (31.3 ppm) was found to be 100%. In [4] (31.3 ppm), the “Postemergence herbicidal activity XANST” value was 85%. Also, the “Postemergence herbicidal activity SETFA” value in assay [5] (31.3 ppm) is 85%. Besides, the “Postemergence herbicidal activity CHEAL” value in assay [6] (31.3 ppm) came to 95%. Also, in [7] (31.3 ppm), the “Postemergence herbicidal activity IPOHE” value is recorded as 70%. The “Postemergence herbicidal activity AMARE” value in assay [8] (31.3 ppm) is listed as 100%. The “Postemergence herbicidal activity ABUTH” value in assay [9] (31.3 ppm) amounted to 90%. Moreover, the “Postemergence herbicidal activity VIOTR” value in assay [10] (31.3 ppm) came out at 80%. The “Postemergence herbicidal activity POLCO” value in assay [11] (31.3 ppm) is given as 60%. Further, the “Postemergence herbicidal activity AVEFA” value in assay [12] (31.3 ppm) is listed as 50%. For the same compound, the “Preemergence herbicidal activity SORBI” value in assay [13] (35 g/Ha) was 100%. Further, the “Preemergence herbicidal activity ECHCG” value in [14] (35 g/Ha) worked out at 90%. In addition, the “Preemergence herbicidal activity ALOMY” value in assay [15] (35 g/Ha) was 100%. For the same compound, in assay [16] (35 g/Ha), the “Preemergence herbicidal activity XANST” value stood at 70%. Moreover, in assay [17] (35 g/Ha), the “Preemergence herbicidal activity DIGSA” value amounted to 100%. The “Preemergence herbicidal activity SETFA” value in assay [18] (35 g/Ha) is 100%. In addition, the “Preemergence herbicidal activity CHEAL” value in assay [19] (35 g/Ha) is reported as 100%. Besides, the “Preemergence herbicidal activity IPOHE” value in assay [20] (35 g/Ha) was determined as 90%. Also, the “Preemergence herbicidal activity AMARE” value in [21] (35 g/Ha) worked out at 100%. For the same compound, the “Preemergence herbicidal activity ABUTH” value in assay [22] (35 g/Ha) amounted to 95%. Moreover, the “Preemergence herbicidal activity AVEFA” value in assay [23] (35 g/Ha) is 70%. Besides, in assay [24] (35 g/Ha), the “Preemergence herbicidal activity EPHHL” value is 70%.

In the case of `COc1cc(OC)n2nc(NS(=O)(=O)c3c(OC(C)C)cccc3C(F)(F)F)nc2n1` [Compound 11], the “Postemergence herbicidal activity SORBI” value in assay [1] (62.5 ppm) came to 50%. Further, the “Postemergence herbicidal activity ALOMY” value in assay [2] (62.5 ppm) was found to be 60%. Besides, the “Postemergence herbicidal activity STEME” value in assay [3] (62.5 ppm) is reported as 95%. In addition, the “Postemergence herbicidal activity XANST” value in assay [4] (62.5 ppm) was determined as 100%. Further, the “Postemergence herbicidal activity SETFA” value in assay [5] (62.5 ppm) came out at 100%. For the same compound, the “Postemergence herbicidal activity CHEAL” value in assay [6] (62.5 ppm) was determined as 100%. Besides, the “Postemergence herbicidal activity IPOHE” value in assay [7] (62.5 ppm) stood at 80%. For the same compound, in [8] (62.5 ppm), the “Postemergence herbicidal activity AMARE” value was 100%. Also, the “Postemergence herbicidal activity ABUTH” value in [9] (62.5 ppm) is 100%. Moreover, the “Postemergence herbicidal activity VIOTR” value in [10] (62.5 ppm) worked out at 90%. Also, the “Postemergence herbicidal activity POLCO” value in assay [11] (62.5 ppm) came out at 100%. For the same compound, in assay [12] (62.5 ppm), the “Postemergence herbicidal activity AVEFA” value is 30%. The “Preemergence herbicidal activity SORBI” value in assay [13] (17.5 g/Ha) is 90%. The “Preemergence herbicidal activity ECHCG” value in [14] (17.5 g/Ha) turned out to be 100%. The “Preemergence herbicidal activity ALOMY” value in assay [15] (17.5 g/Ha) turned out to be 100%. For the same compound, the “Preemergence herbicidal activity XANST” value in assay [16] (17.5 g/Ha) turned out to be 90%. In [17] (17.5 g/Ha), the “Preemergence herbicidal activity DIGSA” value is 80%. Further, the “Preemergence herbicidal activity SETFA” value in [18] (17.5 g/Ha) is on record as 100%. The “Preemergence herbicidal activity CHEAL” value in [19] (17.5 g/Ha) is 100%. Besides, the “Preemergence herbicidal activity IPOHE” value in [20] (17.5 g/Ha) is 98%. The “Preemergence herbicidal activity AMARE” value in [21] (17.5 g/Ha) stood at 100%. For the same compound, the “Preemergence herbicidal activity ABUTH” value in assay [22] (17.5 g/Ha) is listed as 100%. Moreover, in assay [23] (17.5 g/Ha), the “Preemergence herbicidal activity AVEFA” value came to 60%. Also, in assay [24] (17.5 g/Ha), the “Preemergence herbicidal activity EPHHL” value worked out at 90%.
